One may read the EC50 as the concentration needed to bring the measured effect to its halfway point. For orientation: AC50 means the concentration at which the activity in the assay is half-maximal.

The record followed here is ChEMBL document CHEMBL1201862, “PubChem BioAssay data set” (2004).

The structures appear in SMILES notation. Active and inactive are the calls of the source. Where only a bound is given, the exact number is not on record here.

For test [1], the target named is T1, Sentrin-specific protease 8 (Homo sapiens, UniProt Q96LD8).
T1 sequence (Q96LD8 whole entry): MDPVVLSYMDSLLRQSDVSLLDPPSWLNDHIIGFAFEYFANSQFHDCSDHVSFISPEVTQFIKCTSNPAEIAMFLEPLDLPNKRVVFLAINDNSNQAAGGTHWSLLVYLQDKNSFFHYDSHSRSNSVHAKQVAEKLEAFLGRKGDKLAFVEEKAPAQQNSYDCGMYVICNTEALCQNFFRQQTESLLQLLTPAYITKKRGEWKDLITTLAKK
The class given is functional.

In the next test the target is T2, Protein RecA (Mycobacterium tuberculosis, UniProt P9WHJ3).
T2 sequence (P9WHJ3 whole entry): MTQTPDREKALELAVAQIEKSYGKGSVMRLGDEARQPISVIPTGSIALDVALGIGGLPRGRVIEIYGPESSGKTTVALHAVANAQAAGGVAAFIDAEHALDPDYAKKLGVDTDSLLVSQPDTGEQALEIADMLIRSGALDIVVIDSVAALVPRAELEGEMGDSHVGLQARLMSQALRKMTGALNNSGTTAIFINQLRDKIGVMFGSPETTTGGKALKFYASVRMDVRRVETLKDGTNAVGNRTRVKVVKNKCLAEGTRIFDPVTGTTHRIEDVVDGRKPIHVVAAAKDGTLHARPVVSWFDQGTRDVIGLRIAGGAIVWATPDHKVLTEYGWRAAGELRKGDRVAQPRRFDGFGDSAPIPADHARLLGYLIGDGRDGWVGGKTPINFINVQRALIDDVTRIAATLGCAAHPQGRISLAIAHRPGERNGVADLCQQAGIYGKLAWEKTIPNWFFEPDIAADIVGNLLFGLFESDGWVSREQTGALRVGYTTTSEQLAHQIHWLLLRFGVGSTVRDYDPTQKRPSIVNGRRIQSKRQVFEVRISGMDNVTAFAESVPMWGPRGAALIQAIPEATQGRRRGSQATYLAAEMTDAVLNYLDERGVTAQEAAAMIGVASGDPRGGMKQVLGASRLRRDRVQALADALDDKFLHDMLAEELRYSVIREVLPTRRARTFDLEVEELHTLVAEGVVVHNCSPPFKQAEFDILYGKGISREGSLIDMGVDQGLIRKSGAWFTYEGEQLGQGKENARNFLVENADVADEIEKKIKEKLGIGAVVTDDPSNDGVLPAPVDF
As to the kind of experiment: Fluorescence Cell-Free Homogeneous Dose Retest to Identify Inhibitors of RecA-Intein Splicing Activity. [Related pubchem assays (depositor defined):AID2097, AID2223, AID489010, AID492950]. The format is functional.

Test [2] deals with T3, Replicative DNA helicase DnaB (Mycobacterium tuberculosis, UniProt P9WMR3).
T3 sequence (P9WMR3 whole entry): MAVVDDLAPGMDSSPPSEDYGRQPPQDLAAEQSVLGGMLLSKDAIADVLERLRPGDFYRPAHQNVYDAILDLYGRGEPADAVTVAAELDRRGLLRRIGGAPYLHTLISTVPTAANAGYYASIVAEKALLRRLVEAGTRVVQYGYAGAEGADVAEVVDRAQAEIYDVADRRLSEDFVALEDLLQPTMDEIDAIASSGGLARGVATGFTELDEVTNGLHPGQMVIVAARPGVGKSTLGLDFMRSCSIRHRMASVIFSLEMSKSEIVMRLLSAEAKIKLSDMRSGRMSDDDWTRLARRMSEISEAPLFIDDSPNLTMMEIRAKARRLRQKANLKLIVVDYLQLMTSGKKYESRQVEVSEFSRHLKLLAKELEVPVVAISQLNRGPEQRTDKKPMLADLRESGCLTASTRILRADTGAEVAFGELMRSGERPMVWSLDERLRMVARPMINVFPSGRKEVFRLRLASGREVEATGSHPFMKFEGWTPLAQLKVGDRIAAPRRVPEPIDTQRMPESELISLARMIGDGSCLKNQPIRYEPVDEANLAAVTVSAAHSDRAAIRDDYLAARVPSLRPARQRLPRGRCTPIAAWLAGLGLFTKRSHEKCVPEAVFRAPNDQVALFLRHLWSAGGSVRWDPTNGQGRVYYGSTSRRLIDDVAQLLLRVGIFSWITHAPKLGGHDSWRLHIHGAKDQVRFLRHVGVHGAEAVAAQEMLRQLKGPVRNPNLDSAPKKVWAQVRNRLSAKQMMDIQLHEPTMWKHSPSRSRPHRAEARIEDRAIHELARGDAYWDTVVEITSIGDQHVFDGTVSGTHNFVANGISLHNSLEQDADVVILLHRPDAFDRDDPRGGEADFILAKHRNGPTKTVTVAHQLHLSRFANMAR
As to the kind of experiment: DnaB intein splicing inhibitors, dose response, biochemical, cell-free fluorescence (AID 449749). The class given is functional.

The target in test [3] is Tyrosyl-DNA phosphodiesterase 2 (Homo sapiens, UniProt O95551). The test can be described thus: human TDP2 enzyme inhibitors, dose response, biochemical, epi absorbance, IC50 (AID 743297).
Chain of Tyrosyl-DNA phosphodiesterase 2 (O95551 whole entry): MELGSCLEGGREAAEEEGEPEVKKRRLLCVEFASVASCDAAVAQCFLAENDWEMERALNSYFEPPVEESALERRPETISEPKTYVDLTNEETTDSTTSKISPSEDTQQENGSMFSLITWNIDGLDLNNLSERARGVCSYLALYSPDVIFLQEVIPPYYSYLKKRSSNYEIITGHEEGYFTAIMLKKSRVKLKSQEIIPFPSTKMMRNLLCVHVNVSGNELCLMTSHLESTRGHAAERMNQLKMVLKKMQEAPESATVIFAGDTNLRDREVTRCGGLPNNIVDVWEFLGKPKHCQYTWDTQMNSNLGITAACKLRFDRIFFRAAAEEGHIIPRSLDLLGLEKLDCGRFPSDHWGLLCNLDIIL
In test [4] the target is T1, Sentrin-specific protease 8. The format is functional. The source holds these as a separate data set.
The next test has as its target Major prion protein (Homo sapiens, UniProt P04156). The class given is functional, cell-based.
A short description of test [5]: HepG2 cell cytotoxicity, dose response, cytotoxicity control, ATP luminescence, cherry-pick, activator set 2 (AID 1053143). The class given is functional, cell-based.
A short description of test [6]: Counterscreen for activators of the function of SWI/SNF related, matrix associated, actin dependent regulator of chromatin, subfamily a, member 2 (SMARCA2, BRM): Luminescence-based cell-based high throughput dose response assay to identify non-selective compounds using the VP16 reporter assay. The class given is functional. On the technique in general: Counterscreens check selectivity or assay interference.

In test [7] the target is T4, Zinc finger protein mex-5 (Caenorhabditis elegans, UniProt Q9XUB2).
T4 sequence (Q9XUB2 whole entry): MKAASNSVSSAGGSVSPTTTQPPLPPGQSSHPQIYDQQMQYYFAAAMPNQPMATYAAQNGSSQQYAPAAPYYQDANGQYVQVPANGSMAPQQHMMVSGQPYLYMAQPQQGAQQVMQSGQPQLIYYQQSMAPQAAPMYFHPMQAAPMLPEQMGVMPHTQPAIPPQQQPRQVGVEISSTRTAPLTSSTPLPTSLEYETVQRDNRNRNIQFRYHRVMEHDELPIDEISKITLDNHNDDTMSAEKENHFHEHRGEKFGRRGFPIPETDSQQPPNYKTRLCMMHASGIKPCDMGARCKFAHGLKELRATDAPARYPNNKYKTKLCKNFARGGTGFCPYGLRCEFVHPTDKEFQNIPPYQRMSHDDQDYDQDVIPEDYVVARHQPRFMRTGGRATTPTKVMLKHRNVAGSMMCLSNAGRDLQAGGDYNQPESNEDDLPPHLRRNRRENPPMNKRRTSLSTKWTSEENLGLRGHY
As to the kind of experiment: MEX-5/TCR-2 RNA interaction inhibitors, dose response, biochemical, C. elegans, fluorescence polarization (AID 1960). For orientation: Fluorescence polarisation rises when a labelled molecule tumbles more slowly, as on binding a larger partner.

The target in test [8] is T5, Polyadenylate-binding protein 1 (Homo sapiens, UniProt P11940). The test can be described thus: PABP1 MLLE–PAM2 binding inhibitor potency, dose response, biochemical, fluorescence polarization, FITC-PAM2 peptide (AID 602259). The format is functional. To be noted: read-out: IC50_Mean.
T5 sequence (P11940 whole entry): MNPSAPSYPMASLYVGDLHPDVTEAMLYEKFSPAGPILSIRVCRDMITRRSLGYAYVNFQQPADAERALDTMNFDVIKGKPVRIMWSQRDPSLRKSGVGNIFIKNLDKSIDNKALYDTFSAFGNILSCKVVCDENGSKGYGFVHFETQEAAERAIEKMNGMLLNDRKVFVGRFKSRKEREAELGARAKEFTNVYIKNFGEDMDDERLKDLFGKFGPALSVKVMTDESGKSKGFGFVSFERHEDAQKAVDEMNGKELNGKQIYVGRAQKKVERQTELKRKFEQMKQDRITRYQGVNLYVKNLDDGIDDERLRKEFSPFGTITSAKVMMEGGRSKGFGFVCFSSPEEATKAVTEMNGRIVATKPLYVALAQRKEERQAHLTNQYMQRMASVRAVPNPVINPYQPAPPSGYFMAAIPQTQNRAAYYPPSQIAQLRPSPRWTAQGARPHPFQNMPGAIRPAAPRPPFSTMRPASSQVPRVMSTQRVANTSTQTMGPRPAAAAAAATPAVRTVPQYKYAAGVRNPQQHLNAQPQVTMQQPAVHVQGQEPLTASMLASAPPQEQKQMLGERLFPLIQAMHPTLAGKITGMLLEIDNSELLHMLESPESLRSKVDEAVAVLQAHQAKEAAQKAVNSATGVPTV
The target in test [9] is T5, Polyadenylate-binding protein 1. As to the kind of experiment: PABP1 MLLE–PAM2 interaction inhibitors, dose response, miRNA deadenylation inhibitor project, biochemical, fluorescence polarization, Cy5-PAM2 peptide, secondary (AID 602260). The following applies: read-out: IC50_Mean. The class given is functional.
Test [10] has as its target SWI/SNF-related matrix-associated actin-dependent regulator of chromatin subfamily A member 2 (Homo sapiens, UniProt P51531). As to the kind of experiment: Luminescence-based cell-based high throughput dose response assay to identify activators of the function of SWI/SNF related, matrix associated, actin dependent regulator of chromatin, subfamily a, member 2 (SMARCA2, BRM). The class given is functional.

The target of test [11] is T6, RNA-binding protein pos-1 (Caenorhabditis elegans, UniProt G5EF15).
T6 sequence (G5EF15 whole entry): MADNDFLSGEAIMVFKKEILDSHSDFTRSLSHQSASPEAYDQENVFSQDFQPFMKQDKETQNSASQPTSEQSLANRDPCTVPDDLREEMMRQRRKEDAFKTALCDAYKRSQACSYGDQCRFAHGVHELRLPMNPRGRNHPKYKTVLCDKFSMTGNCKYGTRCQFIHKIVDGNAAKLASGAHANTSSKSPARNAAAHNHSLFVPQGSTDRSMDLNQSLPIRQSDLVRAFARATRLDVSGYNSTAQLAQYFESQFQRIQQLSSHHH
The test can be described thus: inhibitors of POS-1/mex-3 RNA binding, dose response, biochemical, fluorescence polarization (AID 1964).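 Also: purified POS-1 fused to maltose binding protein made in E. coli; potency of compounds blocking POS-1 binding to fluorescent RNA.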

Test [12] in a line: inhibitors of HIV Env-driven cell fusion, dose response, cherry-pick (AID 652057). The class given is functional, cell-based.
Test [13] can be described thus: off-target signal loss in HeLa-CEM21 co-culture – HeLa F-luc CTL cells, cherry-picked, counter-screen for HIV-1 Env fusion inhibitor project, dose response (AID 652040).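 Also: potency for signal decrease marking cytotoxic or nonspecific inhibition.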 The format is functional, cell-based.
Test [14] is described as follows: CEM21 lymphoblast cell cytotoxicity, dose response, cytotoxicity control for viral fusion inhibitor project, CellTiter-Glo luminescence, cherry-picked (AID 652042).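 Also: potency for signal decrease meaning cytotoxicity.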 The class given is functional, cell-based.
Test [15] is described as follows: ZM109 Env clade C HIV-1 fusion inhibitors, dose response, HeLa effector, CEM target cells, luciferase, cherry-pick (AID 652058). The format is functional, cell-based.
The nature of test [16]: inhibitors of clade B AD8 Env fusion, dose response, cell-based, cherry-pick (AID 652062).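 Also: luciferase signal from cell-cell fusion driven by HIV-1 clade B AD8 Env; potency is for inhibitors of fusion seen as a drop in luminescence.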 The format is functional.
The target in test [17] is T7, Ubiquitin-conjugating enzyme E2 N (Homo sapiens, UniProt P61088).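 Also: Dose-response confirmation in a TR-FRET assay detecting UBC13-driven polyubiquitin chain formation, inhibition measured.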
T7 sequence (P61088 whole entry): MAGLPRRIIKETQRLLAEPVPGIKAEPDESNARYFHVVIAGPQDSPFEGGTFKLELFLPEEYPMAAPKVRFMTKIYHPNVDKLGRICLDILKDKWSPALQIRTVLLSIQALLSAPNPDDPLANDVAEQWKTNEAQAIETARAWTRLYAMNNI
The class given is functional.

Test [18] in a line: IGROV1 ovarian cancer cell cytotoxicity, dose response, PAX8 inhibitor project, plate reader, dry powder samples (AID 743043). The class given is functional, cell-based. The following applies: IGROV-1.
Test [19] is described as follows: NIH:OVCAR-3 ovarian cancer cell cytotoxicity, dose response, PAX8 inhibitor project, plate reader, dry powder samples (AID 743044). The class given is functional, cell-based.
The target in another test is Paired box protein Pax-8 (Homo sapiens, UniProt Q06710). The test can be described thus: inhibitors of PAX8-driven TPO luciferase reporter, dose response, RMG-I cells, cherry-pick (AID 687027).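 Also: luciferase reporter driven by Pax8 target thyroperoxidase promoter measured by SteadyGlo luminescence.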 The class given is functional, cell-based.
Chain of Paired box protein Pax-8 (Q06710 whole entry): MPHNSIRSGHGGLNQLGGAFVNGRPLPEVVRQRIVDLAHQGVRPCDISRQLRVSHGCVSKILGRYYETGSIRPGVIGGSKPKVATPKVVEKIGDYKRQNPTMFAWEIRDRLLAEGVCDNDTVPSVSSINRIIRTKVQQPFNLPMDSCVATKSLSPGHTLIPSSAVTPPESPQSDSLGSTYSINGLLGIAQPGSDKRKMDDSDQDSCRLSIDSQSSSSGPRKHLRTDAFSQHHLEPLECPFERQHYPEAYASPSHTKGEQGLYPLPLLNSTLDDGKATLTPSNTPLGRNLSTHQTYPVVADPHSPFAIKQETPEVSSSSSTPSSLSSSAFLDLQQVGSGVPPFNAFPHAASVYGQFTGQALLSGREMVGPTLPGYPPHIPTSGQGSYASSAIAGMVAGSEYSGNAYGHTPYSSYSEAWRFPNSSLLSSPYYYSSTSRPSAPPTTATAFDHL
A short description of test [20]: P. falciparum Dd2 growth inhibitors, dose response, SYBR Green, cherry-picked samples (AID 1159567). The class given is functional, cell-based.
A short description of test [21]: HepG2 cell cytotoxicity, dose response, cytotoxicity control, cherry-picked samples (AID 1159577). The format is functional, cell-based.
Test [22] in a line: HEK293T cytotoxicity, dose response, cytotoxicity control for miR-122 modulator project, cell-based, inhibitor set, cherry-pick, set 2 (AID 720697). The class given is functional.
A short description of test [23]: HEK293T cytotoxicity, dose response, cytotoxicity control for miR-122 modulator project, cell-based, activator set, cherry-pick (AID 720690).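 Also: HEK293T human cells scored for general mammalian cytotoxicity.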 The format is functional.

Chain of SWI/SNF-related matrix-associated actin-dependent regulator of chromatin subfamily A member 2 (P51531 whole entry): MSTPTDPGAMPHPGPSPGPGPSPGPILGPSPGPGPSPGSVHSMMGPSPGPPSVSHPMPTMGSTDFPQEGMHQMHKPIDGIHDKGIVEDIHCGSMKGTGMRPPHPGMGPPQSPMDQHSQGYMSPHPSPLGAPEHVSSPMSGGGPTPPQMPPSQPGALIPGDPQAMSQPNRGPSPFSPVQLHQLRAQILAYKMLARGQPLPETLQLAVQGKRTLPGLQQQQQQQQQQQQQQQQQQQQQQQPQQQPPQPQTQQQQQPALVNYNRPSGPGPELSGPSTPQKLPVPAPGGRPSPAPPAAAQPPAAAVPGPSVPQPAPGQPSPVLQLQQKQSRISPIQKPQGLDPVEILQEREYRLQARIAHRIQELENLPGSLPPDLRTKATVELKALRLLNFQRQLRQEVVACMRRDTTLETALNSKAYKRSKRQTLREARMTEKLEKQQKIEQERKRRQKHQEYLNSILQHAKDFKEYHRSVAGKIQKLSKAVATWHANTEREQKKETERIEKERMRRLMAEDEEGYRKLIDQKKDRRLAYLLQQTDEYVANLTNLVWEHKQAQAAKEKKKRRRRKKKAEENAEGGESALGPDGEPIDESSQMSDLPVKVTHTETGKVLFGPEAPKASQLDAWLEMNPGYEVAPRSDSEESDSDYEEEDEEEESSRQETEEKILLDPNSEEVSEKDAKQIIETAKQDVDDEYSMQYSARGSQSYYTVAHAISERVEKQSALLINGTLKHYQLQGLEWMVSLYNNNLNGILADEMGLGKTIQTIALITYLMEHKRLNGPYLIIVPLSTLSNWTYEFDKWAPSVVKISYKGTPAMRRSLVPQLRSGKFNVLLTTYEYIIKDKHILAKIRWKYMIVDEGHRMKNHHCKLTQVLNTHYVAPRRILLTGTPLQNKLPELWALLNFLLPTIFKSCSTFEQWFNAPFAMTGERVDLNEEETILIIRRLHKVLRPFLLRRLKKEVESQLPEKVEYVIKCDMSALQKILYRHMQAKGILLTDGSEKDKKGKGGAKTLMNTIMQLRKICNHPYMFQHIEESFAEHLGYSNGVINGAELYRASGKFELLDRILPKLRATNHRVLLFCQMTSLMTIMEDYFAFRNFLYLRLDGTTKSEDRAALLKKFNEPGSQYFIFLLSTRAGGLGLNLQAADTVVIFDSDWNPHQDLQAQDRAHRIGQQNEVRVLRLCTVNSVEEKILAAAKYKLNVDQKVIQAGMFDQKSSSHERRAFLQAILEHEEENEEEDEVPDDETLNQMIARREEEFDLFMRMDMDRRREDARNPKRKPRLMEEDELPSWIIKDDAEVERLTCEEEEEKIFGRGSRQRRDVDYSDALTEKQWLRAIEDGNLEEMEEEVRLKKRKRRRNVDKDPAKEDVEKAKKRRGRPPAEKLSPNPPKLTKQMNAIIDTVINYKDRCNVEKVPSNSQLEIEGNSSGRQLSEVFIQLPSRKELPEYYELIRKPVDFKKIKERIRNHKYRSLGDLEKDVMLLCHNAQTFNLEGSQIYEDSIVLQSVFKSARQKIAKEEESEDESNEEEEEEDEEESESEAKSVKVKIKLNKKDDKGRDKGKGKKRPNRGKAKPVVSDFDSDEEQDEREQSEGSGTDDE

Consider `COC(=O)c1ccccc1-c1ccc(C(c2c(C)n[nH]c2O)c2c(C)n[nH]c2O)o1`, for which the IC50 is 18.6 µM (active) in test [1], 51.2 µM (inactive) in test [3] and 8.91 µM (active) in [4]. For the same compound, the 50% effective concentration (EC50) on Protein RecA was 0.214 µM (active). Besides, the concentration at half-maximal activity (AC50) in [2] is 0.279 µM (active).
On to `CCOC(=O)C(CC)Sc1cc(C)nc2ccc(OC)cc12` (stereo not given), for which the IC50 at Major prion protein was 5.29 µM (active); in the test “cells”, > 138 µM (inactive).
As to `Cc1occc1-c1nnc(SC(C)C(=O)Nc2ccccc2F)o1` (stereo not given), the AC50 in test [5] is 19.3 µM (active).
As to `CN(C)CCCN1C(=O)c2cccc3c(Br)ccc(c23)C1=O`, the EC50 in test [6] is > 91.2 µM (inactive); in test [7], 16.7 µM (active); in test [10], > 10.1 µM (inactive); in test [11] it was 22.1 µM (active). Further, the IC50 in test [8] is 29.3 µM (inactive); in test [9], > 66 µM (inactive).
`COc1cc(CNC(C)c2ccccc2)cc(Cl)c1OCC(=O)Nc1ccccc1` (stereo not given): the concentration at half-maximal activity (AC50) in test [12] was 2.13 µM (active); in test [13] it was 4.69 µM (active); in test [14] it was 39 µM (active); in test [15] it was 2.76 µM (active); in [16], 3.78 µM (active).
On to `Cc1ccc(NC(=O)CSc2ncnc3ccccc23)cc1S(=O)(=O)N1CCOCC1`, for which the IC50 was 8.72 µM (active) on Major prion protein, > 138 µM (inactive) in “cells” and > 20 µM (inactive) in [17].
Consider `CCCC#Cc1ccc([C@@H]2[C@H](CO)N3CCCCN(S(=O)(=O)Cc4ccccc4)C[C@@H]23)cc1`, for which the concentration at half-maximal activity (AC50) in test [18] was 42.6 µM (active); in [19] it was 61.3 µM (active); at Paired box protein Pax-8, 29.2 µM (active); in [20], 2.54 µM (active); in [21], 12.4 µM (active).
For `C[C@@H]1CN([C@@H](C)CO)C(=O)Cc2cc(NC(=O)NC3CCCCC3)ccc2O[C@@H]1CN(C)S(=O)(=O)c1ccc(Cl)cc1`, the concentration at half-maximal activity (AC50) in test [14] is 61.1 µM (active).
As to `COc1cccc(NC(=O)N[C@H]2CC[C@H](CC(=O)Nc3ccc(-c4ccccc4)cc3)O[C@@H]2CO)c1`, the AC50 in test [22] was 0.479 µM (active); in [23] it was 44.3 µM (active).
